From patent US20240317721A1, “PYRAZOLYL DERIVATIVES AS INHIBITORS OF THE KRAS MUTANT PROTEIN” (NOVARTIS AG, priority 2021, published 2024) come the findings set out here.

This experiment has as its target KRasG12C (M1-K169, biotinylated on the N-terminus) (Homo sapiens (Human), UniProt P01116, G12C). Nature of the experiment: Covalent competition assay: scintillation proximity assay (SPA) quantifying covalent modification of KRASG12C. The format is binding. The settings on record: competition with radiolabeled covalent probe (Compound B/Compound A), 2 hours incubation, 10 nM KRasG12C. The method in brief: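 Test compounds compete with a radiolabeled covalent probe for modification of N-terminally biotinylated KRasG12C(M1-K169):GDP, final 10 nM protein, 25 nM radio-ligand, 475 nM unlabelled ligand, 2 h with agitation in 20 mM Tris-HCl pH 7.5, 150 mM NaCl, 0.1 mM MgCl2, 0.01% Tween-20.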
(In general: SPA uses beads or plates that emit light when radiolabelled molecules are held near them.)
The term IC50 denotes the concentration that inhibits the measured activity by half. As for `C=CC(=O)N1CC2(CC(n3nc(N4CC[C@@H](CN5CCN6C(=O)N(C)CC6C5)CC4(C)C)c(-c4c(Cl)c(Cl)cc5[nH]ncc45)c3C)C2)C1` (single isomer, unassigned) [Example 264b], the IC50 stood at 33 nM. The figure for `C=CC(=O)N1CC2(CC(n3nc(N4CC[C@@H](CN5CCOC6CS(=O)(=O)CC65)CC4(C)C)c(-c4c(Cl)c(Cl)cc5[nH]ncc45)c3C)C2)C1` (single isomer, unassigned) [Example 265a, 1-(6-(4-(5,6-dichloro-1H-indazol-4-yl)-3-((R)-4-(((4aR*,7aS*)-6,6-dioxidohexahydro-4H-thieno[3,4-b][1,4]oxazin-4-yl)methyl)-2,2-dimethylpiperidin-1-yl)-5-methyl-1H-pyrazol-1-yl)-2-azaspiro[3.3]heptan-2-yl)prop-2-en-1-one] is 2900 nM; for `C=CC(=O)N1CC2(CC(n3nc(N4CC[C@@H](CN5CCOC6CS(=O)(=O)CC65)CC4(C)C)c(-c4c(Cl)c(Cl)cc5[nH]ncc45)c3C)C2)C1` (single isomer, unassigned) [Example 265b, 1-(6-(4-(5,6-dichloro-1H-indazol-4-yl)-3-((R)-4-(((4aR*,7aS*)-6,6-dioxidohexahydro-4H-thieno[3,4-b][1,4]oxazin-4-yl)methyl)-2,2-dimethylpiperidin-1-yl)-5-methyl-1H-pyrazol-1-yl)-2-azaspiro[3.3]heptan-2-yl)prop-2-en-1-one] it is 9 nM; for `C=CC(=O)N1CC2(CC(n3nc(N4CC[C@@H](CN5CCOC6CS(=O)(=O)CC65)CC4(C)C)c(-c4c(Cl)c(Cl)cc5[nH]ncc45)c3C)C2)C1` (single isomer, unassigned) [Example 266a, 1-(6-(4-(5,6-dichloro-1H-indazol-4-yl)-3-((R)-4-(((4aR*,7aS*)-6,6-dioxidohexahydro-4H-thieno[3,4-b][1,4]oxazin-4-yl)methyl)-2,2-dimethylpiperidin-1-yl)-5-methyl-1H-pyrazol-1-yl)-2-azaspiro[3.3]heptan-2-yl)prop-2-en-1-one] it is 3100 nM. With `C=CC(=O)N1CC2(CC(n3nc(N4CC[C@@H](CN5CCOC6CS(=O)(=O)CC65)CC4(C)C)c(-c4c(Cl)c(Cl)cc5[nH]ncc45)c3C)C2)C1` (single isomer, unassigned) [Example 266b, 1-(6-(4-(5,6-dichloro-1H-indazol-4-yl)-3-((R)-4-(((4aR*,7aS*)-6,6-dioxidohexahydro-4H-thieno[3,4-b][1,4]oxazin-4-yl)methyl)-2,2-dimethylpiperidin-1-yl)-5-methyl-1H-pyrazol-1-yl)-2-azaspiro[3.3]heptan-2-yl)prop-2-en-1-one], the IC50 came to 7 nM. For the molecule `C=CC(=O)N1CC2(CC(n3nc(N4CC[C@@H](CN5CC6(CCN(C7COC7)C6)C5)CC4(C)C)c(-c4c(Cl)c(Cl)cc5[nH]ncc45)c3C)C2)C1` (single isomer, unassigned) [Example 267a], the IC50 was 720 nM. The figure for `C=CC(=O)N1CC2(CC(n3nc(N4CC[C@@H](CN5CC6(CCN(C7COC7)C6)C5)CC4(C)C)c(-c4c(Cl)c(Cl)cc5[nH]ncc45)c3C)C2)C1` (single isomer, unassigned) [Example 267b] is 7 nM; for `C=CC(=O)N1CC2(CC(n3nc(N4CC[C@@H](CN5CC6(CCN(C(C)=O)C6)C5)CC4(C)C)c(-c4c(Cl)c(Cl)cc5[nH]ncc45)c3C)C2)C1` (single isomer, unassigned) [Example 268a] it is 789 nM. As for `C=CC(=O)N1CC2(CC(n3nc(N4CC[C@@H](CN5CC6(CCN(C(C)=O)C6)C5)CC4(C)C)c(-c4c(Cl)c(Cl)cc5[nH]ncc45)c3C)C2)C1` (single isomer, unassigned) [Example 268b], the IC50 came to 7 nM.

For the molecule `C=CC(=O)N1CC2(CC(n3nc(N4CC[C@@H](CN5CCP(C)(=O)CC5)CC4(C)C)c(-c4c(Cl)c(Cl)cc5[nH]ncc45)c3C)C2)C1` (single isomer, unassigned) [Example 269a], the IC50 turned out to be 4300 nM. Take `C=CC(=O)N1CC2(CC(n3nc(N4CC[C@@H](CN5CCP(C)(=O)CC5)CC4(C)C)c(-c4c(Cl)c(Cl)cc5[nH]ncc45)c3C)C2)C1` (single isomer, unassigned) [Example 269b]: the IC50 was 6 nM. The figure for `C=CC(=O)N1CC2(CC(n3nc(N4CC[C@@H](CN5CCN(C)[C@H](CO)C5)CC4(C)C)c(-c4c(Cl)c(Cl)cc5[nH]ncc45)c3C)C2)C1` (single isomer, unassigned) [Example 270a] is 2400 nM; for `C=CC(=O)N1CC2(CC(n3nc(N4CC[C@@H](CN5CCN(C)[C@H](CO)C5)CC4(C)C)c(-c4c(Cl)c(Cl)cc5[nH]ncc45)c3C)C2)C1` (single isomer, unassigned) [Example 270b] it is 5 nM; for `C=CC(=O)N1CC2(CC(n3nc(N4CC[C@@H](CN5CCO[C@@H](C(N)=O)C5)CC4(C)C)c(-c4c(Cl)c(Cl)cc5[nH]ncc45)c3C)C2)C1` (single isomer, unassigned) [Example 271a] it is above 5000 nM.

Regarding `C=CC(=O)N1CC2(CC(n3nc(N4CC[C@@H](CN5CCO[C@@H](C(N)=O)C5)CC4(C)C)c(-c4c(Cl)c(Cl)cc5[nH]ncc45)c3C)C2)C1` (single isomer, unassigned) [Example 271b], the IC50 came out at 14 nM. Next, `C=CC(=O)N1CC2(CC(n3nc(N4CC[C@@H](CN5CC6(CCCN6C6COC6)C5)CC4(C)C)c(-c4c(Cl)c(Cl)cc5[nH]ncc45)c3C)C2)C1` (single isomer, unassigned) [Example 272a]: above 5000 nM; `C=CC(=O)N1CC2(CC(n3nc(N4CC[C@@H](CN5CC6(CCCN6C6COC6)C5)CC4(C)C)c(-c4c(Cl)c(Cl)cc5[nH]ncc45)c3C)C2)C1` (single isomer, unassigned) [Example 272b]: 8 nM; `C=CC(=O)N1CC2(CC(n3nc(N4CC[C@@H](CN5CC(O)C(OC)C5)CC4(C)C)c(-c4c(Cl)c(Cl)cc5[nH]ncc45)c3C)C2)C1` (single isomer, unassigned) [Example 273a, 1-(6-(4-(5,6-dichloro-1H-indazol-4-yl)-3-((R)-4-(((3S*,4S*)-3-hydroxy-4-methoxypyrrolidin-1-yl)methyl)-2,2-dimethylpiperidin-1-yl)-5-methyl-1H-pyrazol-1-yl)-2-azaspiro[3.3]heptan-2-yl)prop-2-en-1-one]: 1100 nM. The figure for `C=CC(=O)N1CC2(CC(n3nc(N4CC[C@@H](CN5CC(O)C(OC)C5)CC4(C)C)c(-c4c(Cl)c(Cl)cc5[nH]ncc45)c3C)C2)C1` (single isomer, unassigned) [Example 273b, 1-(6-(4-(5,6-dichloro-1H-indazol-4-yl)-3-((R)-4-(((3S*,4S*)-3-hydroxy-4-methoxypyrrolidin-1-yl)methyl)-2,2-dimethylpiperidin-1-yl)-5-methyl-1H-pyrazol-1-yl)-2-azaspiro[3.3]heptan-2-yl)prop-2-en-1-one] is 10 nM; for `C=CC(=O)N1CC2(CC(n3nc(N4CC[C@@H](CN5CC(O)C(OC)C5)CC4(C)C)c(-c4c(Cl)c(Cl)cc5[nH]ncc45)c3C)C2)C1` (single isomer, unassigned) [Example 274a, 1-(6-(4-(5,6-dichloro-1H-indazol-4-yl)-3-((R)-4-(((3S*,4S*)-3-hydroxy-4-methoxypyrrolidin-1-yl)methyl)-2,2-dimethylpiperidin-1-yl)-5-methyl-1H-pyrazol-1-yl)-2-azaspiro[3.3]heptan-2-yl)prop-2-en-1-one] it is 795 nM; for `C=CC(=O)N1CC2(CC(n3nc(N4CC[C@@H](CN5CC(O)C(OC)C5)CC4(C)C)c(-c4c(Cl)c(Cl)cc5[nH]ncc45)c3C)C2)C1` (single isomer, unassigned) [Example 274b, 1-(6-(4-(5,6-dichloro-1H-indazol-4-yl)-3-((R)-4-(((3S*,4S*)-3-hydroxy-4-methoxypyrrolidin-1-yl)methyl)-2,2-dimethylpiperidin-1-yl)-5-methyl-1H-pyrazol-1-yl)-2-azaspiro[3.3]heptan-2-yl)prop-2-en-1-one] it is 8 nM. `C=CC(=O)N1CC2(CC(n3nc(N4CC[C@@H](CN5CCN6C(=O)COC[C@@H]6C5)CC4(C)C)c(-c4c(Cl)c(Cl)cc5[nH]ncc45)c3C)C2)C1` (single isomer, unassigned) [Example 275a]: the IC50 was above 5000 nM. Next, `C=CC(=O)N1CC2(CC(n3nc(N4CC[C@@H](CN5CCN6C(=O)COC[C@@H]6C5)CC4(C)C)c(-c4c(Cl)c(Cl)cc5[nH]ncc45)c3C)C2)C1` (single isomer, unassigned) [Example 275b]: 7 nM. The figure for `C=CC(=O)N1CC2(CC(n3nc(N4CC[C@@H](CN5CCCC56CN(C(C)=O)C6)CC4(C)C)c(-c4c(Cl)c(Cl)cc5[nH]ncc45)c3C)C2)C1` (single isomer, unassigned) [Example 276a] is 3400 nM.

Regarding `C=CC(=O)N1CC2(CC(n3nc(N4CC[C@@H](CN5CCCC56CN(C(C)=O)C6)CC4(C)C)c(-c4c(Cl)c(Cl)cc5[nH]ncc45)c3C)C2)C1` (single isomer, unassigned) [Example 276b], the IC50 is below 5 nM. Regarding `C=CC(=O)N1CC2(CC(n3nc(N4CC[C@@H](CN5CC6C5CCN6C5COC5)CC4(C)C)c(-c4c(Cl)c(Cl)cc5[nH]ncc45)c3C)C2)C1` (single isomer, unassigned) [Example 277a, 1-(6-(4-(5,6-dichloro-1H-indazol-4-yl)-3-((R)-2,2-dimethyl-4-(((1S*,5S*)-2-(oxetan-3-yl)-2,6-diazabicyclo[3.2.0]heptan-6-yl)methyl)piperidin-1-yl)-5-methyl-1H-pyrazol-1-yl)-2-azaspiro[3.3]heptan-2-yl)prop-2-en-1-one], the IC50 worked out at 4500 nM.
